In patent publication US20180251431A1 (VERTEX PHARMACEUTICALS INCORPORATED, priority 2016, published 2018):

What was measured:
wild-type (WT) rats = experiment: Reduction of blood C26:0 LPC in vivo in wild-type rats; parameters: species or system rat; conditions: blood (DBS)
Method: A LC-MS/MS method of analyzing Lysophosphatidylcholine (LPC) in whole blood (dried blood spot card, DBS) and brain tissue samples was developed for measuring the abundance of saturated C16, C18, C20, C22, C24 and C26 LPC in DBS and brain samples. Whole blood was collected with Whatman DMPK-C DBS card at an approximate volume of 20 μL at each time point. Brain tissue was collected at the end point of the study. Samples were prepared and LC-MS/MS analysis was performed as described below.
For DBS bioanalysis, the DBS card was punched at 3 mm in diameter using a semi-automated DBS card puncher. To each punched spot 200 μL of pure methanol was added. The vial was vortexed at low speed for 20 minutes and centrifuged at 4000 rpm for 20 minutes. The clear supernatant was injected onto LC-MS/MS for analysis. For brain tissue bioanalysis, brain tissue was collected in a tared homogenization tube pre-filled with metal bead and weighted. To each sample vial two parts weight of methanol was added. The sample was homogenized using Precellys-24 at 5000 rpm for 20 seconds with one cycle. A 100 mg aliquot of homogenate was used for analysis. To each sample vial 400 μL of pure methanol was added. The vial was vortexed at low speed for 20 minutes and centrifuged at 4000 rpm for 20 minutes. […]
The supernatant obtained from each sample was injected into a LC-MS/MS system (Agilent Technologies, Santa Clara, Calif. and Applied Biosystems, Framingham, Mass.) for analysis. […] LPCs were detected by an AB Sciex API-6500 triple quadrupole MS with electrospray ionization in the mode of multiple reaction monitoring. Ions of Q1 were monitored at m/z of 496.6, 524.6, 552.6, 580.6, 608.6 and 636.6 for LPC 16:0, LPC 18:0, LPC 20:0, LPC 22:0, LPC 24:0 and LPC 26:0, respectively. […] C16:0 LPC levels were expressed as a concentration. […]
Compound 87 was dosed PO (orally by oral gavage) QD at 30, 100, and 300 mg/kg in wild-type (WT) rats (n=5) for 7 days (FIG. 2C). […] DBS cards were stored at 4° C. until they could be analyzed for LPC. DBS samples were prepared and analyzed using LC-MS/MS as described above.

[1] = Metabolic intrinsic clearance in dog hepatocytes; type: in vitro ADME; conditions: beagle, cryopreserved hepatocytes in suspension, pH 7.5, 0.5 million cells/mL, incubation for 4 hours
Method: (§1) The metabolic intrinsic clearance (CLint) of Compound 87 was determined in human, monkey, dog, rat, and mouse hepatocytes. Cryopreserved human hepatocytes (Lot Hue50c), monkey hepatocytes (cynomolgus; Lot Cy328), dog hepatocytes (beagle, Lot Db235), rat hepatocytes (Sprague Dawley; NNH), and mouse hepatocytes (CD-1; Lot Mc522) were obtained from ThermoFisher (Paisley, UK). In separate experiments, compound 87 (1 μM) was incubated with hepatocytes from each species (0.5 million cells/mL, suspension) in Dulbecco's Modified Eagle's Medium (DMEM) supplemented with 4-(2-Hydroxyethyl)piperazine-1-ethanesulfonic acid (HEPES, 9 mM) and fructose (2.2 mM) (pH 7.5). Samples were quenched with acetonitrile and analyzed by LC-MS/MS. The mean CLint for Compound 87 in human, monkey, dog, rat, and mouse hepatocytes after incubation for 4 hours was determined to be ≤2.5, ≤2.5, 7.2, 23.6 and 10.7 μL/min/million cells. Based on these date, Compound 87 was low to moderately metabolized in hepatocytes in mouse, rat, dog, monkey, and human, and the rank order of stability at […] was approximately human>monkey>dog>mouse>rat. […] The metabolic stability of Compound 87 was not expected.

[2] = Metabolic intrinsic clearance in mouse hepatocytes; type: in vitro ADME, CD-1 mouse; conditions: CD-1, cryopreserved hepatocytes in suspension, pH 7.5, 0.5 million cells/mL, incubation for 4 hours
Method: as §1

[3] = Body weight and adverse effects during treatment in the thermal sensitivity studies; type: in vivo, mouse; conditions: ABCD1 KO mice, prophylactic (5 or 20 mg/kg) and therapeutic (32 or 64 mg/kg) PO QD experiments
Method: For the prophylactic study, mice were tested beginning at 10 months of age (before the loss of pain sensitivity) using doses of either 5 or 20 mg/kg. For the therapeutic study, mice were tested beginning at 18 months of age, after there was already a significant loss of pain sensitivity, using doses of either 32 or 64 mg/kg. […] The Plantar test (using a Hargreaves apparatus) was used and measured the latency to respond to a thermal stimulus using the following protocol. An individual mouse was placed into an individual compartment with a glass floor for about 10-15 minutes until they were settled. Each individual mouse was given three trials with an infrared source on each hind paw (alternated hind paws each time, and waited 5 minutes between each trial). The infrared source was placed under the glass floor and was positioned by the operator directly beneath the hind paw. A trial was commenced by depressing a key/button which turned on the infrared source and started a digital timer. When a response was observed (paw withdrawal), the key/button was released and the latency to respond was recorded (in seconds).

O=C(Nc1ccn(-c2ccnc(F)c2)n1)C1(c2ccccc2F)CC1 [Compound 87, 1-(2-fluorophenyl)-N-[1-(2-fluoro-4-pyridyl)pyrazol-3-yl]cyclopropanecarboxamide]
reduction in C26:0 LPC levels compared to vehicle controls (wild-type (WT) rats; 30 mg/kg PO QD for 7 days): ~65%
reduction in C26:0 LPC levels compared to vehicle controls (wild-type (WT) rats; 100 mg/kg PO QD for 7 days): about 75%
reduction in C26:0 LPC levels compared to vehicle controls (wild-type (WT) rats; 300 mg/kg PO QD for 7 days): about 85%
hepatocyte CLint at 1 μM [1]: 7.2 µL/min/1e6 cells
hepatocyte CLint at 1 μM [2]: 10.7 µL/min/1e6 cells
body weight and adverse effects during treatment [3]: did not have a significant drop in body weight or any other noticeable adverse effect
